Measurements taken from PMC7496931, “Activation of Sirtuin 2 Inhibitors Employing Photoswitchable Geometry and Aqueous Solubility” (Chemmedchem, 2020).
“And” between values parts separate entries of the source, which are not always exact repeats. Identical values can stand only once. Like-named read-outs stand apart in the source and are kept apart here.

Assays:
Assay type in all cases: biochemical
Sirt1 = biological target: T1, Sirt1 (Homo sapiens, UniProt Q96EB6); test: Fluorescence-based ZMAL deacetylase activity assay, Sirt1
T1 construct: Expression and purification of Sirt1_133−747, Sirt2_56−356, and Sirt3_118−395 was carried out as described previously; made in house
T1 sequence (Q96EB6 133-747): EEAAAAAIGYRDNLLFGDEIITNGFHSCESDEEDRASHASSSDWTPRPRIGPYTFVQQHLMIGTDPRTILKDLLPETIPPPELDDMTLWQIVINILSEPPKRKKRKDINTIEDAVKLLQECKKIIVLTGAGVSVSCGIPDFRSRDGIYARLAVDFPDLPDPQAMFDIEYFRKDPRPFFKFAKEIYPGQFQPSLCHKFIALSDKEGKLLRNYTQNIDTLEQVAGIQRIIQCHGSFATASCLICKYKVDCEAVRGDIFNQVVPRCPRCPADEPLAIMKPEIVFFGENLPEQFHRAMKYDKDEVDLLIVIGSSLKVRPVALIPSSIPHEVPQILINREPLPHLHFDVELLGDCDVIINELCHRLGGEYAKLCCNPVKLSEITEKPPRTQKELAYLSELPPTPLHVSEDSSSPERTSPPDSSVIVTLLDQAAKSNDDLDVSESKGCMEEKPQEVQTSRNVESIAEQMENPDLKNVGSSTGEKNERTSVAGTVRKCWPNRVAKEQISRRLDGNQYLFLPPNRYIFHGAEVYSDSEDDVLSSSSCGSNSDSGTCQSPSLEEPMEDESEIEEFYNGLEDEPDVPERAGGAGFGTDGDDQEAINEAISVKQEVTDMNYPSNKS
Method: (§1) The effect of the compounds on deacetylase activity of three human sirtuin isotypes (Sirt1–3) was investigated by a homogeneous fluorescence‐based assay, using (Z)‐Lys(acetyl)‐AMC (ZMAL) as substrate. In order to determine the impact of photoisomerization, the respective compounds were irradiated (365 nm, 5 min) in DMSO prior to incubation in the enzyme assay mixture. The results of the irradiated probes were finally compared to non‐irradiated measurements.
(§2) Cloning, expression and purification of recombinant proteins: Expression and purification of Sirt1_133−747, Sirt2_56−356, and Sirt3_118−395 was carried out as described previously.27 Identity and purity were verified by SDS‐PAGE.
(§3) Fluorescence‐based activity assay: The inhibitory effect of compounds on Sirt1–3 was detected via a previously reported fluorescence‐based assay.29 The synthetic substrate (Z)‐Lys(acetyl)‐AMC (ZMAL) is deacetylated by sirtuins, followed by tryptic digestion and thereby release of 7‐aminomethylcoumarin, leading to a fluorescent readout. Inhibition was determined by comparing percentage substrate conversion to a DMSO control after subtraction of the blank fluorescence signal. All compounds were tested at 100 or 50 μM and 10 μM respectively. […] IC50 values were calculated with OriginPro 9.0 G using a non‐linear regression to fit the dose response curve (Figure S6). An enzyme‐free blank control and a 100 % conversion control using AMC instead of ZMAL were measured as well. Inhibition measurements were performed in biological duplicates for all compounds. […]
(§4) Fluorescence-Based Activity Assay (ZMAL-Assay)
(§5) The influence of the synthesized compounds on the deacetylase activity of the class I sirtuins Sirt1–3 was determined in a homogenous fluorescence-based enzyme assay, using the artificial substrate Z-(Ac)Lys-AMC (ZMAL). ZMAL is processed by sirtuins yielding Z-Lys-AMC.
(§6) The latter is subsequently cleaved by tryptic digestion, releasing 7-amino-4-methylcoumarin (AMC), excitation of which leads to a fluorescent read out (λex=390 nm; λem=460 nm). Instead, […]
(§7) contribute to the fluorescence signal. Therefore, the fluorescence intensity is proportional to the activity of the respective sirtuin.
(§8) After subtraction of the blank fluorescence signal (without enzyme) from the signal of the respective probe, the residual signal intensity is related to a 100 % conversion control (AMC), […]
(§9) yielding the percentage substrate conversion. Comparison of the determined substrate conversion with a no-inhibition DMSO control yields the percentage inhibition at the respective […]
(§10) For determination of IC50, inhibitory activity of the respective compound was determined at 8 to 10 distinct concentrations. The measured values were analysed by a non-linear fit to the dose-response curve using a four parameter logistic model (Figure S6):
(§11) Figure S6: Non-linear regression of the dose-response curves of compounds 15c and 15f at the thermal equilibrium (∆, black) and after 5 minutes of 365 nm irradiation (red). […]
A maximal polarization control using just DMSO and a minimal polarization control using 1 µL of the 400 µM solution of 22 instead of inhibitor were performed as well as a blank control containing 1 µL of DMSO in 19 µL assay buffer. The mixture was incubated 10 min at 37 °C […]
(1 picture or pasted object on this page, not shown here)

Sirt2 = biological target: T2, Sirt2 (Homo sapiens, UniProt Q8IXJ6); test: Fluorescence-based ZMAL deacetylase activity assay, Sirt2
T2 construct: Expression and purification of Sirt1_133−747, Sirt2_56−356, and Sirt3_118−395 was carried out as described previously; made in house
T2 sequence (Q8IXJ6 56-356): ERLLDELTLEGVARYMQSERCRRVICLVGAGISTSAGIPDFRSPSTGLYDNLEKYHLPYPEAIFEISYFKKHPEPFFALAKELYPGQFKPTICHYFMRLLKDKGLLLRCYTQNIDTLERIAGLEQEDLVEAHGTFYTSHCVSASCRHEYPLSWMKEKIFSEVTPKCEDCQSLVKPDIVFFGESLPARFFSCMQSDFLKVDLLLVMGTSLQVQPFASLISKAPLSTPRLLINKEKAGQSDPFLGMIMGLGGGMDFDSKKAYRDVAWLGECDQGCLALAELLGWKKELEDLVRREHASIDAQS
Method: as §1, §2, §3, §4, §5, §6, §7, §8, §9, §10, §11
(§12) A maximal polarization control using just DMSO and a minimal polarization control using 1 µL of the 400 µM solution of 22 instead of inhibitor were performed as well as a blank control containing 1 µL of DMSO in 19 µL assay buffer. The mixture was incubated 10 min at 37 °C

Sirt3 = biological target: T3, Sirt3 (Homo sapiens, UniProt Q9NTG7); test: Fluorescence-based ZMAL deacetylase activity assay, Sirt3
T3 construct: Expression and purification of Sirt1_133−747, Sirt2_56−356, and Sirt3_118−395 was carried out as described previously; made in house
T3 sequence (Q9NTG7 118-395): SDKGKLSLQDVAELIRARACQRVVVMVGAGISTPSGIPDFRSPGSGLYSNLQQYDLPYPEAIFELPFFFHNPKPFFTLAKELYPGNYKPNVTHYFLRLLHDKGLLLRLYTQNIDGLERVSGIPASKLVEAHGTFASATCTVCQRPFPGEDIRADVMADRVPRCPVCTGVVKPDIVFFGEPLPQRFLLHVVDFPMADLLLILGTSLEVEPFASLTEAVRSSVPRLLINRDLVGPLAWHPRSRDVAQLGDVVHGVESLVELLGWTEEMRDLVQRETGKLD
Method: as §1, §2, §3, §4, §5, §6, §7, §8, §9, §10, §11, §12

[1] = PSS after 5 min UV irradiation (365 nm), read-out: Sirt1 inhibition PSS [365 nm] (class)
[2] = thermal equilibrium (Δ), read-out: Sirt1 inhibition Δ (class)
[3] = PSS after 5 min UV irradiation (365 nm)
[4] = PSS after 5 min UV irradiation (365 nm), read-out: Sirt1 inhibition PSS [365 nm], percent inhibition
[5] = PSS after 5 min UV irradiation (365 nm), read-out: Sirt2 inhibition PSS [365 nm], IC50
[6] = thermal equilibrium (Δ), read-out: Sirt2 inhibition Δ, IC50
[7] = PSS after 5 min UV irradiation (365 nm), read-out: Sirt3 inhibition PSS [365 nm], percent inhibition
[8] = thermal equilibrium (Δ), read-out: Sirt3 inhibition Δ, percent inhibition
[9] = @ 100 μM, PSS after 5 min UV irradiation (365 nm), read-out: Sirt1 inhibition PSS [365 nm], percent inhibition
[10] = @ 100 μM, thermal equilibrium (Δ), read-out: Sirt1 inhibition Δ, percent inhibition
[11] = PSS 365 nm versus thermal equilibrium
[12] = PSS after 5 min UV irradiation (365 nm), read-out: Sirt3 inhibition PSS [365 nm], IC50
[13] = thermal equilibrium (Δ), read-out: Sirt3 inhibition Δ, IC50

Row | SMILES | inhibition at 100 µM (Sirt1; [1]) | inhibition at 100 µM (Sirt1; [2]) | IC50 (Sirt2; [5]) | IC50 (Sirt2; [6]) | inhibition at 10 µM (Sirt3; [7]) | inhibition at 10 µM (Sirt3; [8]) | decrease of Sirt2 inhibition upon 365 nm irradiation (factor) (Sirt2; [11]) | other results
1 | Cc1cc(/N=N/c2cncc(C(N)=O)c2)cc(C)c1NC(=O)C12CC3CC(CC(C3)C1)C2 [9 k] | < 30% | < 30% |  |  |  |  |  | inhibition at 100 µM (Sirt2; PSS after 5 min UV irradiation (365 nm), read-out: Sirt2 inhibition PSS [365 nm], percent inhibition): 71%; inhibition at 100 µM (Sirt2; thermal equilibrium (Δ), read-out: Sirt2 inhibition Δ, percent inhibition): 43%; Sirt3 inhibition PSS [365 nm] (class) (Sirt3; [3]): n.i. (n.i.: no inhibition detected (<30 % @ 100 μM)); Sirt3 inhibition Δ (class) (Sirt3; thermal equilibrium (Δ)): n.i. (n.i.: no inhibition detected (<30 % @ 100 μM))
2 | CC(C)(C)OC(=O)c1ccc(/N=N/c2cncc(C(N)=O)c2)cc1 [15 a] |  | < 30% | 6.8 ± 0.4 µM | 6 ± 1.1 µM | 45% | 42% |  | inhibition at 10 µM (Sirt1; [4]): 7%
3 | CC(C)(C)OC(=O)Cc1ccc(/N=N/c2cncc(C(N)=O)c2)cc1 [15 b] |  |  | 6.9 ± 0.6 µM | 3.9 ± 0.2 µM | 30% | 58% |  | inhibition at 100 µM (Sirt1; [9]): 44%; inhibition at 100 µM (Sirt1; [10]): 35%
4 | CC(C)(C)OC(=O)NCc1ccc(/N=N/c2cncc(C(N)=O)c2)cc1 [15 c] |  | < 30% | 2.8 ± 0.1 µM | 0.9 µM and 0.88 µM |  |  | three | inhibition at 10 µM (Sirt1; [4]): 6%; decrease of Sirt3 inhibition upon 365 nm irradiation (factor) (Sirt3; [11]): fourfold; IC50 (Sirt3; [12]): 4 ± 0.7 µM; IC50 (Sirt3; [13]): 1.1 ± 0.2 µM
5 | NC(=O)c1cncc(/N=N/c2ccc(Br)cc2)c1 [15 d] |  | < 30% | 8.4 ± 0.9 µM | 7.5 ± 0.5 µM |  |  |  | inhibition at 100 µM (Sirt1; [9]): 47%; IC50 (Sirt3; [12]): 13 ± 2.2 µM; IC50 (Sirt3; [13]): 8.2 ± 1.4 µM
6 | CCCCNC(=O)c1ccc(/N=N/c2cncc(C(N)=O)c2)cc1 [15 e] |  | < 30% |  |  | 49% | 54% |  | inhibition at 10 µM (Sirt1; [4]): 10%; inhibition at 10 µM (Sirt2; PSS after 5 min UV irradiation (365 nm), read-out: Sirt2 inhibition PSS [365 nm], percent inhibition (converted)): 61%; inhibition at 10 µM (Sirt2; thermal equilibrium (Δ), read-out: Sirt2 inhibition Δ, percent inhibition (converted)): 51%
7 | CCCCCCCCCC(=O)NCc1ccc(/N=N/c2cncc(C(N)=O)c2)cc1 [15 f] | < 30% | < 30% | 1.6 ± 0.2 µM | 37 µM and 36.6 µM |  |  |  | increase of Sirt2 inhibition upon 365 nm irradiation (factor) (Sirt2; [11]): 23 fold; Sirt3 inhibition PSS [365 nm] (class) (Sirt3; [3]): n.i. (n.i.: no inhibition detected (<30 % @ 100 μM)); Sirt3 inhibition Δ (class) (Sirt3; thermal equilibrium (Δ)): n.i. (n.i.: no inhibition detected (<30 % @ 100 μM))
8 | NC(=O)c1cncc(/N=N/c2ccc(C#CCCCCO)cc2)c1 [15 g] |  |  | 11.8 ± 1 µM | 7.2 ± 0.5 µM | 22% | 64% | 1.6 fold | inhibition at 100 µM (Sirt1; [9]): 54%; inhibition at 100 µM (Sirt1; [10]): 60%
9 | CC(C)(O)C#Cc1ccc(/N=N/c2cncc(C(N)=O)c2)cc1 [15 h] | < 30% | < 30% | 37.5 ± 5.2 µM | 15.2 ± 1.8 µM | 18% | 42% | 2.5 fold | 
10 | NC(=O)c1cncc(OCc2cccc(/N=N/c3ccc(OCc4ccccc4)cc3)c2)c1 [20 a] | < 30% | < 30% | 1.6 ± 0.2 µM | 0.7 ± 0.21 µM | 24% | 23% | twofold | 
11 | NC(=O)c1cncc(OCc2cccc(/N=N/c3ccc(F)cc3)c2)c1 [20 b] | < 30% | < 30% | 6.4 ± 0.5 µM | 3.2 ± 0.5 µM | 47% | 34% | twofold | 
